Laboratory results taken from the supplement of paper PMC10307832.

Tests used:
Experiment in all cases: relative viability (nuclei count vs DMSO), 5 days (fraction); higher = more cells survive
Daporinad + Olaparib = compound: O=C(/C=C/c1cccnc1)NCCCCC1CCN(C(=O)c2ccccc2)CC1 [Daporinad] + O=C(c1cc(Cc2n[nH]c(=O)c3ccccc23)ccc1F)N1CCN(C(=O)C2CC2)CC1 [Olaparib] (partner 8 µM)
In short: (§1)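 Relative viability is defined as nuclei in treated wells over nuclei in vehicle wells. Duplicate plates were run and medians reported. Lung cancer cell lines in 1536-well plates were dosed by pin tool one day after seeding, with one drug or with a fixed anchor-drug dose plus five library-drug doses (not always all listed) in √10 steps, and nuclei were counted after 5 days.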

Daporinad + Tozasertib = compound: O=C(/C=C/c1cccnc1)NCCCCC1CCN(C(=O)c2ccccc2)CC1 [Daporinad] + Cc1cc(Nc2cc(N3CCN(C)CC3)nc(Sc3ccc(NC(=O)C4CC4)cc3)n2)n[nH]1 [Tozasertib] (partner 0.1 µM)
In short: as §1

R406 + Lapatinib = compound: COc1cc(Nc2ncc(F)c(Nc3ccc4c(n3)NC(=O)C(C)(C)O4)n2)cc(OC)c1OC [R406] + CS(=O)(=O)CCNCc1ccc(-c2ccc3ncnc(Nc4ccc(OCc5cccc(F)c5)c(Cl)c4)c3c2)o1 [Lapatinib] (partner 2 µM)
In short: as §1

Daporinad + Alpelisib = compound: O=C(/C=C/c1cccnc1)NCCCCC1CCN(C(=O)c2ccccc2)CC1 [Daporinad] + Cc1nc(NC(=O)N2CCC[C@H]2C(N)=O)sc1-c1ccnc(C(C)(C)C(F)(F)F)c1 [Alpelisib] (partner 2 µM)
In short: as §1

| Cell Line | relative viability (Daporinad + Olaparib; first compound 0.0005 µM) | relative viability (Daporinad + Olaparib; first compound 0.001581 µM) | relative viability (Daporinad + Olaparib; first compound 0.005 µM) | relative viability (Daporinad + Olaparib; first compound 0.01581 µM) | relative viability (Daporinad + Tozasertib; first compound 0.0005 µM) | relative viability (Daporinad + Tozasertib; first compound 0.001581 µM) | relative viability (Daporinad + Tozasertib; first compound 0.005 µM) | relative viability (Daporinad + Tozasertib; first compound 0.01581 µM) | relative viability (R406 + Lapatinib; first compound 0.08 µM) | relative viability (R406 + Lapatinib; first compound 0.253 µM) | relative viability (R406 + Lapatinib; first compound 0.8 µM) | relative viability (R406 + Lapatinib; first compound 2.53 µM) | relative viability (R406 + Lapatinib; first compound 8 µM) | relative viability (Daporinad + Alpelisib; first compound 0.0005 µM) | relative viability (Daporinad + Alpelisib; first compound 0.001581 µM) | relative viability (Daporinad + Alpelisib; first compound 0.005 µM) | relative viability (Daporinad + Alpelisib; first compound 0.01581 µM) |
| --- | --- | --- | --- | --- | --- | --- | --- | --- | --- | --- | --- | --- | --- | --- | --- | --- | --- |
| 201T | 0.802 | 0.856 | 0.807 | 0.806 | 0.854 | 0.94 | 1 | 0.958 | 0.868 | 1.06 | 1.02 | 0.95 | 0.905 | 0.983 | 1.05 | 1 | 0.987 |
| A549 | 0.324 | 0.184 | 0.128 | 0.0773 |  |  |  |  | 0.882 | 1.04 | 1.1 | 0.545 | 0.215 | 0.764 | 0.804 | 0.879 | 0.572 |
| A-427 | 0.665 | 0.713 | 0.622 | 0.571 | 0.207 | 0.22 | 0.198 | 0.153 | 0.922 | 1.14 | 1.17 | 0.958 | 0.801 | 0.948 | 1.15 | 1.04 | 0.852 |
| ABC-1 | 1 | 0.82 | 0.781 | 0.582 | 0.186 | 0.185 | 0.179 | 0.209 | 0.85 | 1.07 | 1.09 | 0.875 | 0.705 | 1.21 | 1.18 | 0.969 | 0.989 |
| BEN | 0.827 | 1.02 | 1.02 | 0.914 | 0.552 | 0.547 | 0.422 | 0.546 | 0.627 | 0.75 | 0.735 | 0.791 | 0.602 | 0.924 | 0.979 | 1.08 | 1.27 |
| CAL-12T | 0.624 | 0.596 | 0.512 | 0.269 | 0.324 | 0.325 | 0.158 | 0.124 | 0.697 | 0.698 | 0.775 | 0.638 | 0.288 | 1.28 | 1.04 | 0.832 | 0.411 |
| COR-L23 | 0.156 | 0.245 | 0.19 | 0.155 | 0.199 | 0.232 | 0.179 | 0.106 | 1.02 | 1.09 | 1.49 | 1.05 | 0.47 | 0.891 | 1.01 | 0.691 | 0.183 |
| COR-L 105 | 0.637 | 0.66 | 0.61 | 0.591 | 0.38 | 0.282 | 0.357 | 0.341 | 0.359 | 0.391 | 0.364 | 0.276 | 0.292 | 1.14 | 1.02 | 1.12 | 1.06 |
| Calu-6 | 0.495 | 0.433 | 0.391 | 0.268 |  |  |  |  | 1.02 | 1.25 | 1.09 | 0.745 | 0.476 | 0.934 | 0.96 | 1.09 | 0.519 |
| ChaGo-K-1 | 0.34 | 0.248 | 0.258 | 0.196 | 0.261 | 0.225 | 0.216 | 0.192 |  |  |  |  |  |  |  |  |  |
| EBC-1 | 0.597 | 0.667 | 0.602 | 0.49 |  |  |  |  | 0.22 | 0.226 | 0.216 | 0.233 | 0.197 | 0.761 | 0.901 | 0.935 | 0.859 |
| EKVX | 0.861 | 0.912 | 0.788 | 0.615 | 0.392 | 0.457 | 0.301 | 0.396 | 0.247 | 0.239 | 0.18 | 0.104 | 0.176 | 0.83 | 0.87 | 0.873 | 1.18 |
| EMC-BAC-2 | 0.387 | 0.342 | 0.316 | 0.235 | 0.321 | 0.311 | 0.224 | 0.204 | 0.888 | 0.963 | 0.93 | 0.921 | 0.806 | 0.822 | 0.773 | 0.544 | 0.223 |
| EPLC-272H | 0.72 | 0.704 | 0.581 | 0.442 | 0.256 | 0.292 | 0.493 | 0.4 | 0.888 | 0.924 | 1.1 | 0.442 | 0.228 | 0.942 | 1.02 | 0.84 | 1.08 |
| H3255 | 0.534 | 0.58 | 0.526 | 0.594 | 0.455 | 0.605 | 0.638 | 0.716 | 0.257 | 0.264 | 0.249 | 0.235 | 0.233 | 0.696 | 0.812 | 0.725 | 0.702 |
| HARA | 0.726 | 0.425 | 0.466 | 0.28 | 0.117 | 0.105 | 0.109 | 0.0561 | 0.743 | 0.672 | 0.775 | 0.55 | 0.157 | 0.702 | 0.955 | 0.638 | 0.176 |
| HCC-15 | 0.67 | 0.642 | 0.467 | 0.35 | 0.476 | 0.366 | 0.749 | 0.484 | 0.822 | 1.02 | 0.94 |  | 0.687 | 0.89 | 0.931 | 1.05 | 0.901 |
| HCC-44 | 0.962 | 1.06 | 1.04 | 0.985 | 0.881 | 1.03 | 1.16 | 1.05 | 0.899 | 1.08 | 1.12 | 0.624 | 0.619 | 0.817 | 0.937 | 0.825 | 0.864 |
| HCC-78 | 0.531 | 0.786 | 0.649 | 0.559 | 0.417 |  | 0.357 | 0.637 | 0.673 | 0.919 | 0.888 | 0.649 | 0.354 | 0.296 | 0.368 | 0.285 | 0.425 |
| HCC-366 | 0.334 |  | 0.189 | 0.095 | 0.103 | 0.0734 | 0.124 | 0.171 | 0.908 | 1.15 | 1.17 |  | 0.356 | 0.44 | 0.503 | 0.542 | 0.616 |
